Data published in paper PMC12193096 (International Journal of Molecular Sciences, 2025).

Legend:
FGR = target: T1, FGR (Homo sapiens, UniProt P09769); assay: live-cell confocal co-localization (HaloTag recruitment to endosome/F-actin) in HeLa cells; assay type: cell-based
T1 construct: EGFP-fusion of wild-type FGR

ABL1 = target: T2, ABL1 (Homo sapiens, UniProt P00519); assay: Kinase-Glo Plus luminescence kinase assay; also live-cell co-localization competed by excess dasatinib; assay type: biochemical
T2 construct: recombinant active kinase ABL1

SRC = target: T3, SRC (Homo sapiens, UniProt P12931); assay: Western blot of pY416 autophosphorylation of EGFP-SRC in HeLa cells; live-cell co-localization imaging; assay type: cell-based
T3 construct: full-length SRC (EGFP-SRC)

HCK = target: T4, HCK (Homo sapiens, UniProt P08631); assay: live-cell confocal co-localization (HaloTag recruitment to endosome/F-actin) in HeLa cells; assay type: cell-based
T4 construct: EGFP-fusion of wild-type HCK

LYN = target: T5, LYN (Homo sapiens, UniProt P07948); assay: as above; assay type: cell-based
T5 construct: EGFP-fusion of wild-type LYN

YES1 = target: T6, YES1 (Homo sapiens, UniProt P07947); assay: as above; assay type: cell-based
T6 construct: EGFP-fusion of wild-type YES1

BTK = target: T7, BTK (Homo sapiens, UniProt Q06187); assay: as above; assay type: cell-based
T7 construct: EGFP-fusion of wild-type BTK

CSK = target: T8, CSK (Homo sapiens, UniProt P41240); assay: as above; assay type: cell-based
T8 construct: EGFP-fusion of wild-type CSK
Excerpt: live-cell confocal co-localization (HaloTag recruitment to endosome/F-actin) in HeLa cells on CSK | […]

T2 sequence (P00519 whole entry): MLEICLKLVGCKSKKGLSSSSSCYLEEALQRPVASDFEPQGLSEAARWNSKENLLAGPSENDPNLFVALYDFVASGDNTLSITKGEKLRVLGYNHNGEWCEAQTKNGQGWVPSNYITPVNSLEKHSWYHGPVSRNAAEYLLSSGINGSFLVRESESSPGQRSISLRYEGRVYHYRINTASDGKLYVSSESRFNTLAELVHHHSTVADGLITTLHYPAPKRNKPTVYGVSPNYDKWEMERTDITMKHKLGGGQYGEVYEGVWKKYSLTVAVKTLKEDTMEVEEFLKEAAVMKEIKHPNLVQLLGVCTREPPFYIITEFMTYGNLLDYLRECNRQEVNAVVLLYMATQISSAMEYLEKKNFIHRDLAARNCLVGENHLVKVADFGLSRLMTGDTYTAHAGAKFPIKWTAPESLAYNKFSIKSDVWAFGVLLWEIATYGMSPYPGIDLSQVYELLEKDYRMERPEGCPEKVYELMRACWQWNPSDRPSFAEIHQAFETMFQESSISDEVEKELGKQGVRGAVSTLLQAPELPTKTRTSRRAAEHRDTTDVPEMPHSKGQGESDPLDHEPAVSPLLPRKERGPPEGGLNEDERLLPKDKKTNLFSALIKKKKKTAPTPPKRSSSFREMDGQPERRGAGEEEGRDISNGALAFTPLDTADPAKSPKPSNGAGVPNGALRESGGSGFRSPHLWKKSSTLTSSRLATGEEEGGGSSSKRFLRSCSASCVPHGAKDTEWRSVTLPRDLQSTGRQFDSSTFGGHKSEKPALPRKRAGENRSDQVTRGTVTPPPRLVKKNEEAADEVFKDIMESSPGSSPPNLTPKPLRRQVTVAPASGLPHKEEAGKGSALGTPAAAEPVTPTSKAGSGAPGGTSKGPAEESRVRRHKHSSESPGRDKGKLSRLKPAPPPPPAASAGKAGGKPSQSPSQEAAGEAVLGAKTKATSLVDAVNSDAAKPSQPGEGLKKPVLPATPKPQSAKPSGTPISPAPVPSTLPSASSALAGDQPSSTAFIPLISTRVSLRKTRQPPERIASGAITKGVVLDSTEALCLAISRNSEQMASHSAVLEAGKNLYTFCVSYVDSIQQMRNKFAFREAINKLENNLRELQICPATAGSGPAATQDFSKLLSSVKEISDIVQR
T7 sequence (Q06187 whole entry, the tested form may be a part): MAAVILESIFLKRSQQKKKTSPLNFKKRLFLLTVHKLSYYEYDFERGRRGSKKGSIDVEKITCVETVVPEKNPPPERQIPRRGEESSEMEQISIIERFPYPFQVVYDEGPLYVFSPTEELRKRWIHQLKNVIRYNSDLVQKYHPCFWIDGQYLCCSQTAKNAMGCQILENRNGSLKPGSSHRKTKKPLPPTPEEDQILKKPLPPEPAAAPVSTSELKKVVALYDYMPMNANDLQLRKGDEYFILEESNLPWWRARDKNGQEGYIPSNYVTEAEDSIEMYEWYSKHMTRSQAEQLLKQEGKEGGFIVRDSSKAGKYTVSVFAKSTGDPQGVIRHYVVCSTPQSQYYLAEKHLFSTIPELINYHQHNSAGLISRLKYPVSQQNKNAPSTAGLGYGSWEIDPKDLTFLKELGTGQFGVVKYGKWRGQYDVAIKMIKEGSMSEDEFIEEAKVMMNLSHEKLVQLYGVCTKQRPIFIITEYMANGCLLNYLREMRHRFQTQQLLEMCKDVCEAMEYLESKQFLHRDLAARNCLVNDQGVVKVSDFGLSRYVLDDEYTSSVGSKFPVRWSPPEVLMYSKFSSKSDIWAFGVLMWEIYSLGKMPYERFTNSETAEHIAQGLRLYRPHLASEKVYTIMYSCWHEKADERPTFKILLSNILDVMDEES
T6 sequence (P07947 2-543): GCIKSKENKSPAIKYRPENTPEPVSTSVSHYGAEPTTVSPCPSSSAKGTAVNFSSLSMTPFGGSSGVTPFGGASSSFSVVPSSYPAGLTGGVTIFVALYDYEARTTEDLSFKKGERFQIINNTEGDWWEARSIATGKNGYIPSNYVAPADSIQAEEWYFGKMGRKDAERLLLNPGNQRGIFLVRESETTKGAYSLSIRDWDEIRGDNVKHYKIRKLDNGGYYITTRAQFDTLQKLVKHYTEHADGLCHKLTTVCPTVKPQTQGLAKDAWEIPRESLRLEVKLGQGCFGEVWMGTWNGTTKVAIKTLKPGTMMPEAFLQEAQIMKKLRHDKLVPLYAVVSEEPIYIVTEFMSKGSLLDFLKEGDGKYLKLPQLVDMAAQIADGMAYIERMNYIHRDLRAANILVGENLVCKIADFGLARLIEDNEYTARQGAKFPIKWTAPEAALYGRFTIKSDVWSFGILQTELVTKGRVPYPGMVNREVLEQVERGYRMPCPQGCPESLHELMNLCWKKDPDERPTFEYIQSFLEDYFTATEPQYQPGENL
T1 sequence (P09769 2-529): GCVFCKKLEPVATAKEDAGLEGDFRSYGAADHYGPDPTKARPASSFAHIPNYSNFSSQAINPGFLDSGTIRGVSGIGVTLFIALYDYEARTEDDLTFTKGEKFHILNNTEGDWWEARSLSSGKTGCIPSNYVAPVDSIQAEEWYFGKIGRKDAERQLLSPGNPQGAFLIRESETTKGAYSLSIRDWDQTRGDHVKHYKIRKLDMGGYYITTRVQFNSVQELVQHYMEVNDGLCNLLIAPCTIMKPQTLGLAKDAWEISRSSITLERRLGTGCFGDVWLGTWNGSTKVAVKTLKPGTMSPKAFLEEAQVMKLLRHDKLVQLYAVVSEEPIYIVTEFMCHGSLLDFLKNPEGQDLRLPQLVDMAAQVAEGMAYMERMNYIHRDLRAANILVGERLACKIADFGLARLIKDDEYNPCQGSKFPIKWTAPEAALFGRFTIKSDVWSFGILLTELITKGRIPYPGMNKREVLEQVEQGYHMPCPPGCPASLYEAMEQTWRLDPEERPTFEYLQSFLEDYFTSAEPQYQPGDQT
T5 sequence (P07948 2-491 isoform P07948-2): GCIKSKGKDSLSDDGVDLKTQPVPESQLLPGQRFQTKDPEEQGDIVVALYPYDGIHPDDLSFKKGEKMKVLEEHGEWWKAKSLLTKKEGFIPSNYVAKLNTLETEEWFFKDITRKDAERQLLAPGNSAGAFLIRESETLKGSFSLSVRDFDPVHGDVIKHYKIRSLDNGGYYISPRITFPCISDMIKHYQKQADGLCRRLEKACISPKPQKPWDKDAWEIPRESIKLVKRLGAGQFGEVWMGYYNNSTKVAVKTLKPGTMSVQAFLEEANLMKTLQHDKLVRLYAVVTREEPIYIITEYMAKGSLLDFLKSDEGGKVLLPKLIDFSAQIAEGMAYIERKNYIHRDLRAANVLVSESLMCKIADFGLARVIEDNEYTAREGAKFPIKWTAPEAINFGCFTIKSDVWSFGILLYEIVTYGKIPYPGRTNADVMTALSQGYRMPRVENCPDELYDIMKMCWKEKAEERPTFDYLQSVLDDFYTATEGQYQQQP
T4 sequence (P08631 2-526): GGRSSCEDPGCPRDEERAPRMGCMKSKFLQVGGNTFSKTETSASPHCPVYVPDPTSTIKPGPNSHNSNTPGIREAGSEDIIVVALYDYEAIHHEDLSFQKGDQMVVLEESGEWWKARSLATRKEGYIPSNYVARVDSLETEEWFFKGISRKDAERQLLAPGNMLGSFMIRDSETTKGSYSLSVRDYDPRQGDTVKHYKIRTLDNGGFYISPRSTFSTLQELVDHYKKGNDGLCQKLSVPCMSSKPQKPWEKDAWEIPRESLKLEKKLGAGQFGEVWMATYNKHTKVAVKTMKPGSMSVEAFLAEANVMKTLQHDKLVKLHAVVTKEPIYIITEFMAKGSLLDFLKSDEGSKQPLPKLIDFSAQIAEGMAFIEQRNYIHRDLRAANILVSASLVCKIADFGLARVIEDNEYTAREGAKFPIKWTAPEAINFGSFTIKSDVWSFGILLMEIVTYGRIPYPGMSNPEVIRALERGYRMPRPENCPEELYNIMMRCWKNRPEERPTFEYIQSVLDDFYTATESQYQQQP
T3 sequence (P12931 2-536): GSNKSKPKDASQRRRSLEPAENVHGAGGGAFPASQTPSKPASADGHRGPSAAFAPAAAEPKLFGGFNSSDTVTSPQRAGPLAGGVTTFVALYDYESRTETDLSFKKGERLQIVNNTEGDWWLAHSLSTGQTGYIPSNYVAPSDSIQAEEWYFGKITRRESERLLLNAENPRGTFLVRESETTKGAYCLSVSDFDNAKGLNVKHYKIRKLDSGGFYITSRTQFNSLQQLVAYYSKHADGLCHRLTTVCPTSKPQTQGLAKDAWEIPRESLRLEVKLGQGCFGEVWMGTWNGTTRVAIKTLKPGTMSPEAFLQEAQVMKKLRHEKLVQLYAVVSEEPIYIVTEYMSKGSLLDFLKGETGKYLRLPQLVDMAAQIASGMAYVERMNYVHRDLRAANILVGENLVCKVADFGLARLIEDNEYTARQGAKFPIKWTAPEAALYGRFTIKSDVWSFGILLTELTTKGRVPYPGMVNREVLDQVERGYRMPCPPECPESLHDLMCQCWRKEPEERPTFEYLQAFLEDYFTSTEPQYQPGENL
T8 sequence (P41240 whole entry, the tested form may be a part): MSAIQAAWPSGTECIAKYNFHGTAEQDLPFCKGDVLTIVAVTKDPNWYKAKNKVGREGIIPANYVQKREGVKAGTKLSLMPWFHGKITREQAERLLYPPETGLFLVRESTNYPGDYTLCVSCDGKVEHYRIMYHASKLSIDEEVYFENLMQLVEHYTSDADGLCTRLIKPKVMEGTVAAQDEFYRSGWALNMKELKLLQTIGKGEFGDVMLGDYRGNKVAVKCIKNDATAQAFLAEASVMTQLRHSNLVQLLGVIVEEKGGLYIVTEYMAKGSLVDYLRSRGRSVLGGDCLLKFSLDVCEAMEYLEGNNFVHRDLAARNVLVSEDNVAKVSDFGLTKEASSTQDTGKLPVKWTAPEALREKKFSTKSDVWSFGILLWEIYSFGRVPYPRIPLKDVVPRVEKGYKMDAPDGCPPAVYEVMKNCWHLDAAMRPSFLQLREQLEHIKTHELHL

Cc1nc(Nc2ncc(C(=O)Nc3c(C)cccc3Cl)s2)cc(N2CCN(CCNC(=O)CCC(=O)NCCOCCOCCCCCCCl)CC2)n1 [dasatinib−HT ligand]
live-cell confocal co-localization (HaloTag recruitment to endosome/F-actin) in (FGR): the GFP-fusion kinase co-localized with the intracellular compartments
IC50 (ABL1): 153 nM
Western blot of pY416 autophosphorylation of EGFP-SRC in HeLa cells; live-cell c (SRC): the levels of active, phosphorylated SRC significantly decreased compared with those in vehicle-treated HeLa cells
live-cell confocal co-localization (HaloTag recruitment to endosome/F-actin) in (HCK): the GFP-fusion kinase co-localized with the intracellular compartments
live-cell confocal co-localization (HaloTag recruitment to endosome/F-actin) in (LYN): the GFP-fusion kinase co-localized with the intracellular compartments
live-cell confocal co-localization (HaloTag recruitment to endosome/F-actin) in (YES1): the GFP-fusion kinase co-localized with the intracellular compartments
live-cell confocal co-localization (HaloTag recruitment to endosome/F-actin) in (BTK): the GFP-fusion kinase co-localized with the intracellular compartments
live-cell confocal co-localization (HaloTag recruitment to endosome/F-actin) in (CSK): clearly showed binding events between dasatinib and its target kinases (ABL1, SRC, CSK, etc.) at specific subcellular structures
